Measured values reported in PubChem BioAssay AID1259407 (Chemical Carcinogenesis Research Information System (CCRIS), 2018).
Activity calls are given as the source filed them. The rule behind the calls is not given here.

Tested on: CCRIS mutagenicity, Ames/micronucleus/aberration tests
Experiment: CCRIS mutagenicity studies
[1] = Test System: AMES SALMONELLA TYPHIMURIUM, Strain/Indicator: TA98, Metabolic Activation: NONE, Method: STANDARD PLATE
[2] = Test System: AMES SALMONELLA TYPHIMURIUM, Strain/Indicator: TA98, Metabolic Activation: RAT, LIVER, S-9, AROCLOR 1254, Method: STANDARD PLATE
[3] = Test System: AMES SALMONELLA TYPHIMURIUM, Strain/Indicator: TA100, Metabolic Activation: NONE, Method: STANDARD PLATE
[4] = Test System: AMES SALMONELLA TYPHIMURIUM, Strain/Indicator: TA100, Metabolic Activation: RAT, LIVER, S-9, AROCLOR 1254, Method: STANDARD PLATE
[5] = Test System: AMES SALMONELLA TYPHIMURIUM, Strain/Indicator: TA1535, Metabolic Activation: NONE, Method: STANDARD PLATE

Compound: O=C1CCC(=O)N1c1ccc(Cl)c(Cl)c1Cl
- mutagenic call [1]: inactive; negative
- mutagenic call [2]: inactive; negative
- mutagenic call [3]: inactive; negative
- mutagenic call [4]: inactive; negative

Compound: Nc1nc(F)nc2c1ncn2[C@@H]1O[C@H](CO)[C@@H](O)[C@@H]1O
- mutagenic call (Test System: CHINESE HAMSTER OVARY, Strain/Indicator: CHO/6-THIOGUANINE, Metabolic Activation: NONE): active; positive

Compound: Cl/C=C(\Cl)C(Cl)Cl
- mutagenic call [1]: active; positive
- mutagenic call [3]: active; positive
- mutagenic call [4]: active; positive
- mutagenic call [5]: active; positive

Compound: COc1ccc(N(CCCl)CCCl)c2oc([N+](=O)[O-])cc12
- mutagenic call (Test System: AMES SALMONELLA TYPHIMURIUM, Strain/Indicator: TA100(NR), Metabolic Activation: NONE, Method: STANDARD PLATE): active; positive
- mutagenic call (Test System: AMES SALMONELLA TYPHIMURIUM, Strain/Indicator: TA100(NR), Metabolic Activation: RAT, LIVER, S-9, AROCLOR 1254, Method: STANDARD PLATE): active; positive
- mutagenic call [3]: active; positive
- mutagenic call [4]: active; positive

Compound: CC(C)(C)NCC(O)COc1cccc2c1CC(O)C(O)C2 (centres undefined)
- mutagenic call [1]: inactive; negative
- mutagenic call [2]: inactive; negative
- mutagenic call [3]: inactive; negative
- mutagenic call [4]: inactive; negative
- mutagenic call (Test System: UDS HUMAN HEPATOCYTES, Strain/Indicator: THY INCORP, Metabolic Activation: NONE, Method: AUTORADIOGRAPHY): inactive; negative
- mutagenic call (Test System: UDS RAT HEPATOCYTES, Strain/Indicator: THY INCORP, Metabolic Activation: NONE, Method: AUTORADIOGRAPHY): inactive; negative

Compound: O=c1oc2c([N+](=O)[O-])ccc3ccc4cccc1c4c32
- mutagenic call (Test System: AMES SALMONELLA TYPHIMURIUM, Strain/Indicator: TA98(1,8-DNP6), Metabolic Activation: NONE, Method: PREINCUBATION): active; positive
- mutagenic call (Test System: AMES SALMONELLA TYPHIMURIUM, Strain/Indicator: TA98(1,8-DNP6), Metabolic Activation: RAT, LIVER, S-9, AROCLOR 1254, Method: PREINCUBATION): active; positive
- mutagenic call (Test System: AMES SALMONELLA TYPHIMURIUM, Strain/Indicator: TA98(NR), Metabolic Activation: NONE, Method: PREINCUBATION): active; positive
- mutagenic call (Test System: AMES SALMONELLA TYPHIMURIUM, Strain/Indicator: TA98(NR), Metabolic Activation: RAT, LIVER, S-9, AROCLOR 1254, Method: PREINCUBATION): active; positive
- mutagenic call (Test System: AMES SALMONELLA TYPHIMURIUM, Strain/Indicator: TA98, Metabolic Activation: NONE, Method: PREINCUBATION): active; positive
- mutagenic call (Test System: AMES SALMONELLA TYPHIMURIUM, Strain/Indicator: TA98, Metabolic Activation: RAT, LIVER, S-9, AROCLOR 1254, Method: PREINCUBATION): active; positive
- mutagenic call (Test System: AMES SALMONELLA TYPHIMURIUM, Strain/Indicator: TA100, Metabolic Activation: NONE, Method: PREINCUBATION): active; positive
- mutagenic call (Test System: AMES SALMONELLA TYPHIMURIUM, Strain/Indicator: TA100, Metabolic Activation: RAT, LIVER, S-9, AROCLOR 1254, Method: PREINCUBATION): active; positive

Compound: COc1cc(-c2ccc(-[n+]3nc(-c4ccccc4)nn3-c3ccc([N+](=O)[O-])cc3)c(OC)c2)ccc1-[n+]1nc(-c2ccccc2)nn1-c1ccc([N+](=O)[O-])cc1
- mutagenic call [3]: active; positive
- mutagenic call (Test System: AMES SALMONELLA TYPHIMURIUM, Strain/Indicator: TA100, Metabolic Activation: S-9 MIX, Method: STANDARD PLATE): active; positive

Compound: CC(CNC(=O)c1cccnc1)NC(=O)c1cccnc1 (centres undefined)
- mutagenic call [1]: inactive; negative
- mutagenic call (Test System: AMES SALMONELLA TYPHIMURIUM, Strain/Indicator: TA98, Metabolic Activation: RAT, LIVER, S-9, PHENOBARBITAL AND 5,6-BENZOFLAVONE, Method: STANDARD PLATE): inactive; negative
- mutagenic call [3]: inactive; negative
- mutagenic call (Test System: AMES SALMONELLA TYPHIMURIUM, Strain/Indicator: TA100, Metabolic Activation: RAT, LIVER, S-9, PHENOBARBITAL AND 5,6-BENZOFLAVONE, Method: STANDARD PLATE): inactive; negative
- mutagenic call [5]: inactive; negative
- mutagenic call (Test System: AMES SALMONELLA TYPHIMURIUM, Strain/Indicator: TA1535, Metabolic Activation: RAT, LIVER, S-9, PHENOBARBITAL AND 5,6-BENZOFLAVONE, Method: STANDARD PLATE): inactive; negative
- mutagenic call (Test System: AMES SALMONELLA TYPHIMURIUM, Strain/Indicator: TA1537, Metabolic Activation: NONE, Method: STANDARD PLATE): inactive; negative
- mutagenic call (Test System: AMES SALMONELLA TYPHIMURIUM, Strain/Indicator: TA1537, Metabolic Activation: RAT, LIVER, S-9, PHENOBARBITAL AND 5,6-BENZOFLAVONE, Method: STANDARD PLATE): inactive; negative
- mutagenic call (Test System: E. COLI, Strain/Indicator: WP2 UVRA, Metabolic Activation: NONE, Method: STANDARD PLATE): inactive; negative
- mutagenic call (Test System: E. COLI, Strain/Indicator: WP2 UVRA, Metabolic Activation: RAT, LIVER, S-9, PHENOBARBITAL AND 5,6-BENZOFLAVONE, Method: STANDARD PLATE): inactive; negative
